Data reported in ChEMBL document CHEMBL1921760, “Design, synthesis and biological evaluation of 6-pyridylmethylaminopurines as CDK inhibitors” (Bioorg Med Chem, 2011).
pIC50: −log10 of the molar value. Activity calls are given as the source filed them. No cut-off for these calls is given here.

Tested on: KM12
Assay: Growth inhibition of human KM12 cells after 96 hrs by sulforhodamine B assay
Assay type: functional
Conditions: KM12, 96 h

| SMILES | GI50 |
| --- | --- |
| CC[C@H](Nc1nc(NCc2cccnc2)c2ncn(C(C)C)c2n1)C(O)C(C)C (mixture of isomers) | 22 µM |
| CC[C@@H](Nc1nc(NCc2cccnc2)c2ncn(C(C)C)c2n1)C(O)C(C)(C)C (mixture of isomers) | 19 µM |

Tested on: not listed separately
Assay: AUC in BALB/c mouse plasma at 50 mg/kg, iv after 24 hrs by LC-MS analysis
Assay type: ADME, organism-based
Parameters: time < 24 hr, dose 50 mg/kg, route intravenous
Conditions: not given

| SMILES | AUC at 24 h |
| --- | --- |
| CC[C@@H](Nc1nc(NCc2cccnc2)c2ncn(C(C)C)c2n1)[C@H](C)O | 158 µM·h |
| CC[C@H](Nc1nc(NCc2cccnc2)c2ncn(C(C)C)c2n1)[C@@H](C)O [listing 1 of 2 here] | 298 µM·h |
| CC[C@H](CO)Nc1nc(NCc2ccccc2)c2ncn(C(C)C)c2n1 [SELICICLIB] | 53.4 µM·h |

Molecular target: Cyclin-dependent kinase 1/cyclin B1 (Homo sapiens, UniProt P06493)
Assay: Inhibition of CDK1/cyclin B
Assay type: protein-complex assay
Conditions: not given

Cyclin-dependent kinase 1/cyclin B1, sequence (P06493 whole entry): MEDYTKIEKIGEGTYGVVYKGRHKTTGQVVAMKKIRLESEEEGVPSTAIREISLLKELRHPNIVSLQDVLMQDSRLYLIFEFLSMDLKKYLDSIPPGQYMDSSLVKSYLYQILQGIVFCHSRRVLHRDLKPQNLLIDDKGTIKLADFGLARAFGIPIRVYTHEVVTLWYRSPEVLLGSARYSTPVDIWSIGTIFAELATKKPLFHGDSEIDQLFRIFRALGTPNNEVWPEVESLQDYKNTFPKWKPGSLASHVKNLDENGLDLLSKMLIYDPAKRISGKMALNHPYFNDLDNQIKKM
Cyclin-dependent kinase 1/cyclin B1, sequence (P14635 whole entry, further chain): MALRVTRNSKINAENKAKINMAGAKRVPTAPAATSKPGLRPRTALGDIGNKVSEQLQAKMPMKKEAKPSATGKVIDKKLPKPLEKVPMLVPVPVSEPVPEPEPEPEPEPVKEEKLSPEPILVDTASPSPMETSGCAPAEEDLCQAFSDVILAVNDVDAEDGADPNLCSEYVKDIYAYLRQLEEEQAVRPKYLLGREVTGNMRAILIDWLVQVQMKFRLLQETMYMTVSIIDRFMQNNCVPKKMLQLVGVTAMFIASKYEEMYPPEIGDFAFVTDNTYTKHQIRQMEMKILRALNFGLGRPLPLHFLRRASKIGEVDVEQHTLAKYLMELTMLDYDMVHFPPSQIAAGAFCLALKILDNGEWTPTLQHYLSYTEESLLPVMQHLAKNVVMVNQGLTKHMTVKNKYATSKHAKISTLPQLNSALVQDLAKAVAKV

| SMILES | pIC50 |
| --- | --- |
| CC[C@H](Nc1nc(NCc2cccnc2)c2ncn(C(C)C)c2n1)C(O)C(C)C (mixture of isomers) | 4.66 |
| CC[C@@H](Nc1nc(NCc2cccnc2)c2ncn(C(C)C)c2n1)C(O)C(C)(C)C (mixture of isomers) | 4.64 |

Tested on: HCT-116
Assay: Antitumor activity against human HCT116 cells xenografted in NCR athymic mouse assessed as reduction in tumor volume at 50 mg/kg, po twice daily at 12 to 14 hrs intervals measured after 12 days relative to vehicle treated control
Assay type: functional
Parameters: scale not given: the % may be the effect or the level left
Conditions: not given

| SMILES | Activity |
| --- | --- |
| CC[C@H](Nc1nc(NCc2cccnc2)c2ncn(C(C)C)c2n1)[C@@H](C)O [listing 1 of 2 here] | 49% |

Tested on: HCT-116
Assay: Growth inhibition of human HCT116 cells after 96 hrs by sulforhodamine B assay
Assay type: functional
Conditions: HCT-116, 96 h

| SMILES | GI50 |
| --- | --- |
| CC[C@H](CO)Nc1nc(NCc2ccccc2)c2ncn(C(C)C)c2n1 [SELICICLIB] | 5.05 µM |
| CC[C@H](Nc1nc(NCc2cccnc2)c2ncn(C(C)C)c2n1)C(O)C(C)C (mixture of isomers) | 22 µM |
| CC[C@@H](Nc1nc(NCc2cccnc2)c2ncn(C(C)C)c2n1)C(O)C(C)(C)C (mixture of isomers) | 20 µM |

Tested on: HT-29
Assay: Cell cycle arrest in human HT-29 cells assessed as reduction at S phase at 3.3 uM up to 16 hrs measuring distribution of bromodeoxyuridine incorporation by flow cytometry
Assay type: functional, cell-based
Conditions: not given

| SMILES | Activity |
| --- | --- |
| CC[C@H](Nc1nc(NCc2cccnc2)c2ncn(C(C)C)c2n1)[C@@H](C)O [listing 2 of 2 here] | Active |

Tested on: not listed separately
Assay: Metabolic stability in mouse liver microsomes assessed as compound metabolized at 10 uM after 30 mins by LC-MS analysis
Assay type: ADME, Microsome
Conditions: read-out: Activity

| SMILES | metabolised at 0.5 h, 10 µM |
| --- | --- |
| CC[C@H](CO)Nc1nc(NCc2ccccc2)c2ncn(C(C)C)c2n1 [SELICICLIB] | 67% |
| CC[C@H](Nc1nc(NCc2cccnc2)c2ncn(C(C)C)c2n1)C(O)C(C)C (mixture of isomers) | 62% |
| CC[C@@H](Nc1nc(NCc2cccnc2)c2ncn(C(C)C)c2n1)C(O)C(C)(C)C (mixture of isomers) | 46% |

Tested on: A2780
Assay: Growth inhibition of cisplatin-susceptible human A2780 cells after 96 hrs by sulforhodamine B assay
Assay type: functional
Conditions: A2780, 96 h

| SMILES | GI50 |
| --- | --- |
| CC[C@H](CO)Nc1nc(NCc2ccccc2)c2ncn(C(C)C)c2n1 [SELICICLIB] | 4.45 µM |
| CC[C@H](Nc1nc(NCc2cccnc2)c2ncn(C(C)C)c2n1)C(O)C(C)C (mixture of isomers) | 19 µM |
| CC[C@@H](Nc1nc(NCc2cccnc2)c2ncn(C(C)C)c2n1)C(O)C(C)(C)C (mixture of isomers) | 18 µM |

Tested on: HT-29
Assay: Reduction of RNA polymerase 2 expression in human HT-29 cells
Assay type: functional, cell-based
Conditions: not given

| SMILES | Activity |
| --- | --- |
| CC[C@H](Nc1nc(NCc2cccnc2)c2ncn(C(C)C)c2n1)[C@@H](C)O [listing 2 of 2 here] | Active |

Tested on: CH1
Assay: Growth inhibition of doxorubicin-susceptible human CH1 cells after 96 hrs by sulforhodamine B assay
Assay type: functional
Conditions: CH1, 96 h

| SMILES | GI50 |
| --- | --- |
| CC[C@H](CO)Nc1nc(NCc2ccccc2)c2ncn(C(C)C)c2n1 [SELICICLIB] | 3.25 µM |
| CC[C@H](Nc1nc(NCc2cccnc2)c2ncn(C(C)C)c2n1)C(O)C(C)C (mixture of isomers) | 22 µM |
| CC[C@@H](Nc1nc(NCc2cccnc2)c2ncn(C(C)C)c2n1)C(O)C(C)(C)C (mixture of isomers) | 23 µM |

Tested on: not listed separately
Assay: Clearance in BALB/c mouse plasma at 50 mg/kg, iv after 24 hrs by LC-MS analysis
Assay type: ADME, organism-based
Parameters: dose 50 mg/kg, route intravenous
Conditions: not given

| SMILES | clearance |
| --- | --- |
| CC[C@@H](Nc1nc(NCc2cccnc2)c2ncn(C(C)C)c2n1)[C@H](C)O | 0.283 mL/min |
| CC[C@H](Nc1nc(NCc2cccnc2)c2ncn(C(C)C)c2n1)[C@@H](C)O [listing 1 of 2 here] | 0.15 mL/min |
| CC[C@H](CO)Nc1nc(NCc2ccccc2)c2ncn(C(C)C)c2n1 [SELICICLIB] | 0.85 mL/min |

Molecular target: Cyclin-dependent kinase 7/ cyclin H (Homo sapiens, UniProt P50613)
Assay: Inhibition of CDK7/cyclin H
Assay type: protein-complex assay
Conditions: not given

Cyclin-dependent kinase 7/ cyclin H, sequence (P51946 whole entry): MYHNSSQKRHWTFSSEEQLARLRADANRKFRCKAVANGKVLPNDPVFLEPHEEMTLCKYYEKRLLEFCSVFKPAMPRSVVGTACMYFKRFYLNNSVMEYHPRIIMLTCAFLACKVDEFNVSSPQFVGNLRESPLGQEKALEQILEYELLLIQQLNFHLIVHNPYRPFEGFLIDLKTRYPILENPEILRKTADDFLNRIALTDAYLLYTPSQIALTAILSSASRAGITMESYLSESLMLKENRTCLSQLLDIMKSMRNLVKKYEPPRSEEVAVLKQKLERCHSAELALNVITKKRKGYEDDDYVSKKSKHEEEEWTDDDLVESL
Cyclin-dependent kinase 7/ cyclin H, sequence (P50613 whole entry): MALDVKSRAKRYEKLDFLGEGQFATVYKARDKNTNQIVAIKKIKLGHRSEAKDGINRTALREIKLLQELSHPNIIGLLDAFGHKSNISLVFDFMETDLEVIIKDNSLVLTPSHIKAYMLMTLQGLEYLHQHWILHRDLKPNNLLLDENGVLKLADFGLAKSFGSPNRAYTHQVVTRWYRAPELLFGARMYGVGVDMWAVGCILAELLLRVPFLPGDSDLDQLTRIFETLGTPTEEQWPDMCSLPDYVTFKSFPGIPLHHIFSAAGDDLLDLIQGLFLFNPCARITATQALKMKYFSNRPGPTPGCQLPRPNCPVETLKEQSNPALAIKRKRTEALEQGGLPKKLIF

| SMILES | pIC50 |
| --- | --- |
| CC[C@H](Nc1nc(NCc2cccnc2)c2ncn(C(C)C)c2n1)C(O)C(C)C (mixture of isomers) | 5.46 |
| CC[C@@H](Nc1nc(NCc2cccnc2)c2ncn(C(C)C)c2n1)C(O)C(C)(C)C (mixture of isomers) | 5.80 |

Tested on: HCT-116
Assay: Antitumor activity against human HCT116 cells xenografted in NCR athymic mouse assessed as growth delay at 50 mg/kg, po twice daily at 12 to 14 hrs intervals measured after 12 days relative to vehicle treated control
Assay type: functional, organism-based
Parameters: dose 50 mg/kg
Conditions: not given

| SMILES | Activity |
| --- | --- |
| CC[C@H](Nc1nc(NCc2cccnc2)c2ncn(C(C)C)c2n1)[C@@H](C)O [listing 2 of 2 here] | Active |

Tested on: not listed separately
Assay: Half life in BALB/c mouse plasma at 50 mg/kg, iv by LC-MS analysis
Assay type: ADME, organism-based
Parameters: dose 50 mg/kg, route intravenous
Conditions: not given

| SMILES | half-life |
| --- | --- |
| CC[C@@H](Nc1nc(NCc2cccnc2)c2ncn(C(C)C)c2n1)[C@H](C)O | 1.7 h |
| CC[C@H](Nc1nc(NCc2cccnc2)c2ncn(C(C)C)c2n1)[C@@H](C)O [listing 1 of 2 here] | 2.8 h |
| CC[C@H](CO)Nc1nc(NCc2ccccc2)c2ncn(C(C)C)c2n1 [SELICICLIB] | 1.4 h |

Tested on: not listed separately
Assay: Solubility of the compound in water
Assay type: physicochemical
Conditions: buffer

| SMILES | solubility |
| --- | --- |
| CC[C@@H](Nc1nc(NCc2cccnc2)c2ncn(C(C)C)c2n1)[C@H](C)O | soluble |
| CC[C@H](Nc1nc(NCc2cccnc2)c2ncn(C(C)C)c2n1)[C@@H](C)O [listing 1 of 2 here] | soluble |

Same assay, conditions: water; read-out: solubility

| SMILES | solubility |
| --- | --- |
| CC[C@H](Nc1nc(NCc2cccnc2)c2ncn(C(C)C)c2n1)[C@@H](C)O.O=C(O)C(F)(F)F | > 25 mg/mL |

Tested on: HT-29
Assay: Growth inhibition of human HT-29 cells after 96 hrs by sulforhodamine B assay
Assay type: functional
Conditions: HT-29, 96 h

| SMILES | GI50 |
| --- | --- |
| CC[C@H](CO)Nc1nc(NCc2ccccc2)c2ncn(C(C)C)c2n1 [SELICICLIB] | 6.4 µM |
| CC[C@H](Nc1nc(NCc2cccnc2)c2ncn(C(C)C)c2n1)C(O)C(C)C (mixture of isomers) | 26 µM |
| CC[C@@H](Nc1nc(NCc2cccnc2)c2ncn(C(C)C)c2n1)C(O)C(C)(C)C (mixture of isomers) | 22 µM |

Tested on: HT-29
Assay: Cell cycle arrest in human HT-29 cells assessed as accumulation at G2/M phase at 3.3 uM up to 16 hrs measuring distribution of bromodeoxyuridine incorporation by flow cytometry
Assay type: functional, cell-based
Conditions: not given

| SMILES | Activity |
| --- | --- |
| CC[C@H](Nc1nc(NCc2cccnc2)c2ncn(C(C)C)c2n1)[C@@H](C)O [listing 2 of 2 here] | Active |

Tested on: HT-29
Assay: Inhibition of CDK-mediated RB phosphorylation at Ser-780 in human HT29 cells at 0.1 to 20 uM after 24 hrs by Western blotting relative to control
Assay type: cell-based
Conditions: not given

| SMILES | inhibition |
| --- | --- |
| CC[C@H](Nc1nc(NCc2cccnc2)c2ncn(C(C)C)c2n1)[C@@H](C)O [listing 2 of 2 here] | Active |

Molecular target: Cyclin-dependent kinase 4/cyclin D1 (Homo sapiens, UniProt P11802)
Assay: Inhibition of CDK4/cyclin D1
Assay type: protein-complex assay
Conditions: not given

Cyclin-dependent kinase 4/cyclin D1, sequence (P11802 whole entry): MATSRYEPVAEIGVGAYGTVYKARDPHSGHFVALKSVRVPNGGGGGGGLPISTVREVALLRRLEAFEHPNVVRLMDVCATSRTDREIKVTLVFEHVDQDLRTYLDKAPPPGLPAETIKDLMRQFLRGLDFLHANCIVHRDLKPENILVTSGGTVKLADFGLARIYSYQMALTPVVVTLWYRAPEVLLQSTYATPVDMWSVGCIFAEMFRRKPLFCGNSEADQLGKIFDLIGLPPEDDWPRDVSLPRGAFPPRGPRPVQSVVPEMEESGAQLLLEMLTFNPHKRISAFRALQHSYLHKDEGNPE
Cyclin-dependent kinase 4/cyclin D1, sequence (P24385 whole entry, further chain): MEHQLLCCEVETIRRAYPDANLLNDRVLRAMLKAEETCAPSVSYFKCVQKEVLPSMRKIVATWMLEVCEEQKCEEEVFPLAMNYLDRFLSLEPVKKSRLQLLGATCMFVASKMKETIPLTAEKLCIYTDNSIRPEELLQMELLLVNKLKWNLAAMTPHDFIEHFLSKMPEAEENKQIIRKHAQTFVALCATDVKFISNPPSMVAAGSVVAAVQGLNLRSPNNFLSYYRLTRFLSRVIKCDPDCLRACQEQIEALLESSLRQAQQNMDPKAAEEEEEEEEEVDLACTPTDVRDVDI

| SMILES | pIC50 |
| --- | --- |
| CC[C@H](Nc1nc(NCc2cccnc2)c2ncn(C(C)C)c2n1)C(O)C(C)C (mixture of isomers) | 4.51 |
| CC[C@@H](Nc1nc(NCc2cccnc2)c2ncn(C(C)C)c2n1)C(O)C(C)(C)C (mixture of isomers) | 4.62 |

Tested on: CH1
Assay: Growth inhibition of doxorubicin-resistant human CH1 cells after 96 hrs by sulforhodamine B assay
Assay type: functional
Conditions: CH1, 96 h

| SMILES | GI50 |
| --- | --- |
| CC[C@H](CO)Nc1nc(NCc2ccccc2)c2ncn(C(C)C)c2n1 [SELICICLIB] | 5.4 µM |
| CC[C@H](Nc1nc(NCc2cccnc2)c2ncn(C(C)C)c2n1)C(O)C(C)C (mixture of isomers) | 20.5 µM |
| CC[C@@H](Nc1nc(NCc2cccnc2)c2ncn(C(C)C)c2n1)C(O)C(C)(C)C (mixture of isomers) | 23 µM |

Molecular target: Cyclin-dependent kinase 2/cyclin E1 (Homo sapiens, UniProt P24941)
Assay: Inhibition of CDK2/cyclin E
Assay type: protein-complex assay
Conditions: not given

| SMILES | pIC50 |
| --- | --- |
| CC[C@H](Nc1nc(NCc2cccnc2)c2ncn(C(C)C)c2n1)C(O)C(C)C (mixture of isomers) | 5.96 |
| CC[C@@H](Nc1nc(NCc2cccnc2)c2ncn(C(C)C)c2n1)C(O)C(C)(C)C (mixture of isomers) | 6.00 |

Tested on: not listed separately
Assay: Cmax in BALB/c mouse plasma at 50 mg/kg, iv after 24 hrs by LC-MS analysis
Assay type: ADME, organism-based
Parameters: dose 50 mg/kg, route intravenous
Conditions: not given

| SMILES | Cmax |
| --- | --- |
| CC[C@@H](Nc1nc(NCc2cccnc2)c2ncn(C(C)C)c2n1)[C@H](C)O | 377 µM |
| CC[C@H](Nc1nc(NCc2cccnc2)c2ncn(C(C)C)c2n1)[C@@H](C)O [listing 1 of 2 here] | 268 µM |
| CC[C@H](CO)Nc1nc(NCc2ccccc2)c2ncn(C(C)C)c2n1 [SELICICLIB] | 93.7 µM |

Tested on: A2780
Assay: Growth inhibition of cisplatin-resistant human A2780 cells after 96 hrs by sulforhodamine B assay
Assay type: functional
Conditions: A2780, 96 h

| SMILES | GI50 |
| --- | --- |
| CC[C@H](Nc1nc(NCc2cccnc2)c2ncn(C(C)C)c2n1)C(O)C(C)C (mixture of isomers) | 26.5 µM |
| CC[C@@H](Nc1nc(NCc2cccnc2)c2ncn(C(C)C)c2n1)C(O)C(C)(C)C (mixture of isomers) | 23 µM |

Tested on: not listed separately
Assay: Oral bioavailability in BALB/c mouse at 50 mg/kg by LC-MS analysis
Assay type: ADME, organism-based
Conditions: in vivo

| SMILES | bioavailability |
| --- | --- |
| CC[C@@H](Nc1nc(NCc2cccnc2)c2ncn(C(C)C)c2n1)[C@H](C)O | 15% |
| CC[C@H](Nc1nc(NCc2cccnc2)c2ncn(C(C)C)c2n1)[C@@H](C)O [listing 1 of 2 here] | 15% |

Tested on: not listed separately
Assay: Inhibition of PKA
Conditions: not given

| SMILES | pIC50 |
| --- | --- |
| CC[C@H](CO)Nc1nc(NCc2ccccc2)c2ncn(C(C)C)c2n1 [SELICICLIB] | < 4.30 |
| CC[C@H](Nc1nc(NCc2cccnc2)c2ncn(C(C)C)c2n1)C(O)C(C)C (mixture of isomers) | < 3.70 |
| CC[C@@H](Nc1nc(NCc2cccnc2)c2ncn(C(C)C)c2n1)C(O)C(C)(C)C (mixture of isomers) | < 3.70 |

Tested on: not listed separately
Assay: Volume of distribution in BALB/c mouse plasma at 50 mg/kg, iv after 24 hrs by LC-MS analysis
Assay type: ADME, organism-based
Parameters: dose 50 mg/kg, route intravenous
Conditions: not given

| SMILES | Vd |
| --- | --- |
| CC[C@@H](Nc1nc(NCc2cccnc2)c2ncn(C(C)C)c2n1)[C@H](C)O | 0.084 L |
| CC[C@H](Nc1nc(NCc2cccnc2)c2ncn(C(C)C)c2n1)[C@@H](C)O [listing 1 of 2 here] | 0.013 L |
| CC[C@H](CO)Nc1nc(NCc2ccccc2)c2ncn(C(C)C)c2n1 [SELICICLIB] | 0.073 L |
